Patent publication US20230047393A1 (EWHA DrugDesignHouse Co.,Ltd., priority 2021, published 2023)
Values after ≈ are worked out from the molar mass of the structure shown. Read-outs that look alike come from different tables or passages of the source.

How the values were obtained:
rabbit GFS model = details: cited from earlier work
[1] = test system: TFG-β2-treated trabecular meshwork cell cultures; details: cited from earlier work
[2] = test system: TFG-β2-treated perfused human anterior segments; details: cited from earlier work
[3] = test system: laser-induced CNV in retina of mice; details: day 14 after laser-induced CNV formation, vs PBS treated control (p<0.05, n=5 per group); cited from earlier work
mouse B16 melanoma model = details: cited from earlier work; for progression of melanoma: mouse B16 melanoma model, with enhanced CTL responses
[4] = Solubility of EW-7197 with various solubilizing agents (4° C. and 25° C.); assay type: physicochemical; details: for EW-7197 dissolved: 1% of each surfactant, boric acid/sodium borate pH7.5
Source text: The buffer solution used in this study was 0.9% boric acid/0.1% sodium borate (pH7.5). […] After confirming that the formulations were suspended at each temperature, each formulation was filtered.

[5] = test system: mouse model of ulcerative colitis; details: cited from earlier work
[6] = Effect of metal ion on thermal stability of EW-7197 (40° C.); assay type: physicochemical; details: 100 ppm aluminum ions or iron ions, with or without EDTA, PE bottles
Protocol: After the preparation of each formulation, the formulation was filtered. The filtrate was filled into a PE bottle, and stored in a thermostatic chamber (40° C.).
In this study, the final concentration of aluminum ions or iron ions was 100 ppm, and the PE ophthalmic bottles were used as containers.

[7] = Photostability of EW-7197 in buffer solutions (ultraviolet and visible light); assay type: physicochemical; details: solution left in a room for a whole day under fluorescent lighting (about 1000 lx per hour)
Protocol: The formulations used in the photostability test are the same formulations (excluding A13, A16, A19, and A22) used for evaluation of thermal stability shown in Table 4. After preparation, each formulation was filtered. About 3 mL of the filtrate was filled in a glass ampule, and illuminated with ultraviolet light of 50 W·h/m^2 and visible light of 300,000 lx·hr by a photostability test chamber. […] Generally, illumination under white fluorescent lighting is about 1000 lx per hour. […] Therefore, EW-7197 needs to be stored in light shielded conditions.

[8] = test system: liver of bile duct ligated rats; details: cited from earlier work
[9] = test system: peritoneal adhesions rat model; details: dose-dependent; cited from earlier work
[10] = test system: adhesion bands mouse model; details: cited from earlier work
rat esophagus = details: after SEMS placement in the rat esophagus; cited from earlier work
[11] = test system: 4T1 orthotopic-grafted mice; details: cited from earlier work
CML-affected mice = details: combined with ponatinib, compared to ponatinib alone; cited from earlier work
Col8a2 knock-in mice = details: cited from earlier work
[12] = Solubility of EW-7197 in PEG/poloxamer formulations (5° C. and 25° C.); assay type: physicochemical; details: formulations containing 25% PEG4000 and 10% poloxamer 407
Protocol: After confirming that the formulation was suspended at each temperature, the suspension was filtered. The EW-7197 content of the filtrate was measured by HPLC.

[13] = Solubility of EW-7197 at various pH values; assay type: physicochemical; details: thermodynamic from solid
Source text: In order to use EW-7197 for treating or preventing TFG-β signaling related ocular diseases, postsurgical peritoneal adhesions, postsurgical anastomotic strictures, hypertrophic scar, or keloid in human, formulation development of an aqueous solution containing appropriate amounts of EW-7197 is needed.

[14] = test system: kidney of mice with unilateral ureteral obstruction; details: cited from earlier work
[15] = test system: MDA-MB-231-xenografted mouse model; details: cited from earlier work
MMTV/c-Neu mice = details: cited from earlier work
[16] = test system: lung of bleomycin-treated mice; details: cited from earlier work
[17] = test system: liver of CCl4-treated mice; details: cited from earlier work
[18] = test system: rabbit model of trabeculectomy; details: cited from earlier work
rabbit PVR trauma model = details: intravitreal injection; cited from earlier work
[19] = test system: human lens epithelial cells line SRA01/04; details: SRA01/04 cells, nontoxic concentrations; cited from earlier work

NC(=O)c1ccc(-c2nc(-c3ccc4c(c3)OCO4)c(-c3ccccn3)[nH]2)cc1 [SB-431542]
post-surgical scarring and fibrosis after GFS (rabbit GFS model): decreases | levels of fibronectin and plasminogen activator inhibitor-1 (PAI-1) [1]: reduces | level of fibronectin [2]: reduces

Cc1cccc(-c2nn3c(c2-c2ccnc4ccc(C(N)=O)cc24)CCC3)n1 [LY-2157299, reference compound]
neovascular area in retina [3]: reduces | progression of melanoma (mouse B16 melanoma model): suppress

Cc1cccc(-c2[nH]c(CNc3ccccc3F)nc2-c2ccc3ncnn3c2)n1 [EW-7197, 2-fluoro-N-((5-(6-methylpyridin-2-yl)-4-([1,2,4]triazolo[1,5-a]pyridin-6-yl)-1H-imidazol-2-yl)methyl)aniline]
EW-7197 dissolved ([4]; 4° C.): about 0.01% | EW-7197 dissolved ([4]; 25° C.): about 0.02% | upper limit of concentration of EW-7197 ([4]; formulation with 1% tyloxapol, 4% PEG4000, and 2% niacinamide): about 0.015% | clinical symptoms of colitis [5]: ameliorates | excessive collagen deposition and fibrosis in colitis tissues [5]: inhibits | overexpression of proinflammatory and profibrotic genes [5]: suppresses | effect of metal ions on thermal stability of EW-7197 [6]: neither aluminum ions nor iron ions affected the thermal stability | EW-7197 decomposed by light [7]: 1-5% | progression of melanoma (mouse B16 melanoma model): suppress | efficacy compared with LY-2157299 (mouse B16 melanoma model; oral EW-7197 2.5 mg/kg once daily vs LY-2157299 75 mg/kg bid): more effective | expression of collagen, aSMA, fibronectin, 4-hydroxy-2,3-nonenal, and integrins [8]: decreases | incidence, quality, and tenacity of peritoneal adhesions [9]: reduces | frequency and stability of adhesion bands [10]: prevents | granulation tissue formation (rat esophagus): suppresses | CTL activity [11]: enhanced | Smad/TGF-β signaling, cell migration, invasion, and lung metastasis [11]: inhibits | disease relapse and survival (CML-affected mice): significantly delays disease relapse and prolongs survival | fibronectin expression (Col8a2 knock-in mice; 0.004%, 0.02%, and 0.1%, dose-dependent): suppresses | decrease in corneal endothelial cells and/or corneal endothelial disorders represented by overexpression of ECM (Col8a2 knock-in mice; 0.02% eye drop administration): effectively suppresses | solubility of EW-7197 [12]: about 0.125% | solubility ([13]; 0.1N NaOH, pH 12.86, aqueous buffer, pH 12.86, 0.1N NaOH, pH after equilibration 12.53, read-out: Solubility Average (n = 2)): 437 µg/mL (≈ 1090 µM) | solubility ([13]; 0.1N NaOH, pH 12.86, aqueous buffer, pH 12.86, 0.1N NaOH, pH after equilibration 12.53, read-out: Solubility Trial 1): 396 µg/mL (≈ 991 µM) | solubility ([13]; 0.1N NaOH, pH 12.86, aqueous buffer, pH 12.86, 0.1N NaOH, pH after equilibration 12.53, read-out: Solubility Trial 2): 478 µg/mL (≈ 1200 µM) | solubility ([13]; citrate buffer, pH 3, aqueous buffer, pH 3.0, Citrate buffer, pH after equilibration 3.30, read-out: Solubility Average (n = 2)): 1010 µg/mL (≈ 2540 µM) | solubility ([13]; citrate buffer, pH 3, aqueous buffer, pH 3.0, Citrate buffer, pH after equilibration 3.30, read-out: Solubility Trial 1): 1000 µg/mL (≈ 2500 µM) | solubility ([13]; citrate buffer, pH 3, aqueous buffer, pH 3.0, Citrate buffer, pH after equilibration 3.30, read-out: Solubility Trial 2): 1030 µg/mL (≈ 2580 µM) | solubility ([13]; citrate buffer, pH 4, aqueous buffer, pH 4.0, Citrate buffer, pH after equilibration 4.16, read-out: Solubility Average (n = 2)): 105 µg/mL (≈ 263 µM) | solubility ([13]; citrate buffer, pH 4, aqueous buffer, pH 4.0, Citrate buffer, pH after equilibration 4.16, read-out: Solubility Trial 1): 110 µg/mL (≈ 275 µM) | solubility ([13]; citrate buffer, pH 4, aqueous buffer, pH 4.0, Citrate buffer, pH after equilibration 4.16, read-out: Solubility Trial 2): 100 µg/mL (≈ 250 µM) | solubility ([13]; citrate buffer, pH 5, aqueous buffer, pH 5.0, Citrate buffer, pH after equilibration 4.90, read-out: Solubility Average (n = 2)): 20 µg/mL (≈ 50.1 µM) | solubility ([13]; citrate buffer, pH 5, aqueous buffer, pH 5.0, Citrate buffer, pH after equilibration 4.90, read-out: Solubility Trial 1): 19 µg/mL (≈ 47.6 µM) | solubility ([13]; citrate buffer, pH 5, aqueous buffer, pH 5.0, Citrate buffer, pH after equilibration 4.90, read-out: Solubility Trial 2): 21 µg/mL (≈ 52.6 µM) | solubility ([13]; hydrochloric acid buffer, pH 1.2, simulated gastric fluid, pH 1.2, Hydrochloric acid buffer, pH after equilibration 2.81, read-out: Solubility Average (n = 2)): 25000 µg/mL (≈ 62700 µM) | solubility ([13]; hydrochloric acid buffer, pH 1.2, simulated gastric fluid, pH 1.2, Hydrochloric acid buffer, pH after equilibration 2.81, read-out: Solubility Trial 1): 25100 µg/mL (≈ 62700 µM) | solubility ([13]; hydrochloric acid buffer, pH 1.2, simulated gastric fluid, pH 1.2, Hydrochloric acid buffer, pH after equilibration 2.81, read-out: Solubility Trial 2): 25000 µg/mL (≈ 62700 µM) | solubility ([13]; hydrochloric acid buffer, pH 2, simulated gastric fluid, pH 2.0, Hydrochloric acid buffer, pH after equilibration 2.97, read-out: Solubility Average (n = 2)): 2900 µg/mL (≈ 7270 µM) | solubility ([13]; hydrochloric acid buffer, pH 2, simulated gastric fluid, pH 2.0, Hydrochloric acid buffer, pH after equilibration 2.97, read-out: Solubility Trial 1): 2930 µg/mL (≈ 7340 µM) | solubility ([13]; hydrochloric acid buffer, pH 2, simulated gastric fluid, pH 2.0, Hydrochloric acid buffer, pH after equilibration 2.97, read-out: Solubility Trial 2): 2880 µg/mL (≈ 7210 µM) | solubility ([13]; phosphate buffer, pH 6, aqueous buffer, pH 6.0, Phosphate buffer, pH after equilibration 5.96, read-out: Solubility Average (n = 2)): 12 µg/mL (≈ 30 µM) | solubility ([13]; phosphate buffer, pH 6, aqueous buffer, pH 6.0, Phosphate buffer, pH after equilibration 5.96, read-out: Solubility Trial 1): 12 µg/mL (≈ 30 µM) | solubility ([13]; phosphate buffer, pH 6, aqueous buffer, pH 6.0, Phosphate buffer, pH after equilibration 5.96, read-out: Solubility Trial 2): 12 µg/mL (≈ 30 µM) | solubility ([13]; phosphate buffer, pH 6.8, aqueous buffer, pH 6.8, Phosphate buffer, pH after equilibration 6.79, read-out: Solubility Average (n = 2)): 12 µg/mL (≈ 30 µM) | solubility ([13]; phosphate buffer, pH 6.8, aqueous buffer, pH 6.8, Phosphate buffer, pH after equilibration 6.79, read-out: Solubility Trial 1): 11 µg/mL (≈ 27.5 µM) | solubility ([13]; phosphate buffer, pH 6.8, aqueous buffer, pH 6.8, Phosphate buffer, pH after equilibration 6.79, read-out: Solubility Trial 2): 13 µg/mL (≈ 32.5 µM) | solubility ([13]; phosphate buffer, pH 7.4, aqueous buffer, pH 7.4, Phosphate buffer, pH after equilibration 7.32, read-out: Solubility Average (n = 2)): 13 µg/mL (≈ 32.5 µM) | solubility ([13]; phosphate buffer, pH 7.4, aqueous buffer, pH 7.4, Phosphate buffer, pH after equilibration 7.32, read-out: Solubility Trial 1): 13 µg/mL (≈ 32.5 µM) | solubility ([13]; phosphate buffer, pH 7.4, aqueous buffer, pH 7.4, Phosphate buffer, pH after equilibration 7.32, read-out: Solubility Trial 2): 13 µg/mL (≈ 32.5 µM) | solubility ([13]; water / aqueous solution, aqueous buffer, in an acceptable pH range for ophthalmic solution, read-out: water solubility): 10 to 20 µg/mL (≈ 25 to 50.1 µM) | solubility ([13]; water, pH 7.17, water, Water, pH after equilibration 7.17, read-out: Solubility Average (n = 2)): 9 µg/mL (≈ 22.5 µM) | solubility ([13]; water, pH 7.17, water, Water, pH after equilibration 7.17, read-out: Solubility Trial 1): 9 µg/mL (≈ 22.5 µM) | solubility ([13]; water, pH 7.17, water, Water, pH after equilibration 7.17, read-out: Solubility Trial 2): 9 µg/mL (≈ 22.5 µM) | expression of collagen, aSMA, fibronectin, 4-hydroxy-2,3-nonenal, and integrins [14]: decreases | paclitaxel-induced epithelial-mesenchymal transition (EMT) and cancer stem-like cells properties [15]: suppresses | Smad/TGF-β signaling, cell migration, invasion, and lung metastasis (MMTV/c-Neu mice): inhibits | expression of collagen, aSMA, fibronectin, 4-hydroxy-2,3-nonenal, and integrins [16]: decreases | expression of collagen, aSMA, fibronectin, 4-hydroxy-2,3-nonenal, and integrins [17]: decreases

Cc1cccc(-c2[nH]c(C(C)(C)C)nc2-c2ccc3c(c2)OCO3)n1 [SB-505124]
TFG-β activity [18]: inhibited | bleb survival [18]: promoted | ocular scarring following GFS (rabbit GFS model): prevents

c1ccc(-c2[nH]ncc2-c2ccnc3ccccc23)nc1 [LY-364947]
PVR development and subsequent tractional retinal detachment (rabbit PVR trauma model): prevents

Cc1ccc(=O)n(-c2ccccc2)c1 [Pirfenidone]
TGF-β-induced proliferation, migration, and EMT [19]: inhibits
